How the values were obtained:
Type in all cases: cell-based, mouse
[1] = tested on: α1-Adrenergic Receptor; test: CCD camera-based luminescent functional test on cardiomyocytes differentiated from ES/mito c-Photina/29 clone; conditions: 100 μM; 20,000 c/w in 96 MTP; 10 μM coelenterazine; high sens., 60 sec; FIG. 8A
[2] = tested on: Voltage-gated Calcium Channels; test: CCD camera-based luminometer test on neurons differentiated from P19/mito c-Photina/1A1 clone; conditions: 40 mM; differentiation day 8 and 11; 384 MTP; tyrode as control; FIG. 21
Experimental: At day 8 and day 11 of the neuronal differentiation protocol (respectively 4 and 7 days after seeding in poly D-lysine coated 384 MTP), neurons differentiated from P19/mito c-Photina®/1A1 clone were incubated with 25 μl/well of 10 μM coelenterazine in standard tyrode buffer, for 4 hrs at 37° C.
Response to a depolarizing stimulus induced by injection of 40 mM KCl was recorded at CCD camera-based luminometer (conditions: high sensitivity, reading time 60 seconds).
The functionality of these cells was also investigated at CCD camera-based luminometer. At differentiation day 8 and 11 (respectively 4 and 7 days after disaggregation of Embryoid Bodies and seeding on poly D-lysine in 384 MTP), the cells were incubated for 4 h with a tyrode solution containing 10 μM coelenterazine.

[3] = tested on: neurons differentiated from P19/mito c-Photina/1A1 clone; test: FLIPR384 Fluo-4 NW test on neurons differentiated from P19/mito c-Photina/1A1 clone; conditions: 40 mM, differentiation day 8, FIG. 22
Experimental: 12.5 μl/well of 120 mM KCl (3×) solution was injected, and the fluorescence signal was recorded for 360 sec and expressed as RFU (Relative Fluorescence Units).
At differentiation day 8 the same cells were analyzed also at FLIPR^384 incubating the cells with FLUO-4 NW® and injecting 40 mM KCl depolarizing agent.

[4] = tested on: Metabotropic or Ionotropic Glutamate Receptors; test: FLIPR384 Fluo-4 NW calcium test on undifferentiated and neuron-differentiated P19/mito c-Photina/1A1 clone; conditions: 100 μM final; undifferentiated cells vs day 8 neurons; FIG. 23
Experimental: Concerning undifferentiated P19/mito c-Photina®/1A1 clone, 3000 cells/well were seeded in gelatin coated 384 well plates. 24 h after seeding the cells were incubated with 25 μl/well of Fluo-4 NW® calcium sensitive fluorescent dye in the dark.
Concerning neurons differentiated from P19/mito c-Photina®/1A1 clone, at day 8 of the neuronal differentiation protocol (4 days after seeding in poly D-lysine coated 384 well plates) cells were incubated with 25 μl/well of Fluo-4 NW® calcium sensitive fluorescent dye in the dark.
Both plates were incubated for 30 minutes at 37° C. and then for 30 minutes at room temperature.
12.5 μl/well of the following 3× compounds in tyrode buffer were injected, and the fluorescence signal was recorded for 330 sec and expressed as RFU.
The same experiment was in contemporary performed on undifferentiated P19/mito c-Photina® 1A1 clone (at 24 h after seeding of 3000 cells/well in 384 MTP, FIG. 23A).

[5] = tested on: GqPCR Endothelin Receptors; test: CCD camera-based luminescent functional test on cardiomyocytes differentiated from ES/mito c-Photina/29 clone; conditions: 50 nM; 20,000 c/w in 96 MTP; 10 μM coelenterazine; high sens., 60 sec; FIG. 8A
Experimental: CCD-Camera Based Luminometer Measurements with Cardiomyocytes • EBs were dissociated at differentiation day 9 with Accutase™ (Chemicon, Cat. N. SCR005), counted and incubated (20000 cells/well in a 96 MTP) in 10 μM coelenterazine in standard tyrode buffer (for the test on GqPCRs) and in tyrode without KCl (for the test on L-type Calcium Channels) for 3 hrs at 37° C. • The tests were run 3 h after cell seeding. • The responses to 50 nM Endothelin-1, 100 μM Noraepinephrine were measured at the CCD camera-based luminometer (conditions: high sensitivity, reading time 60 seconds). • The Voltage gated Calcium Channels were stimulated with 40 mM KCl. The specificity of the channels was checked incubating the cells 15 minutes before he measurement with 5 μM Nifedipine (a specific L-type Voltage-gated Calcium Channel inhibitor) (SIGMA, Cat. N. N7634). • Residual total photoprotein activity was measured after Triton X-100 cell lysis at the CCD camera-based luminometer (conditions: high sensitivity, for 30 seconds). Neuronal Differentiation Protocol with the Embryoid Bodies (EBs) Formation Step
Preliminary functional tests were performed at the CCD camera-based luminometer instrument after Embryoid Bodies disaggregation with Accutase® buffer and resuspension in 10 μM coelenterazine tyrode buffer. The cells were counted and seeded at a cellular concentration of 20,000 c/w in a 96 MTP. […]

For `NC[C@H](O)c1ccc(O)c(O)c1` [Norephinephrine], the “luminescence response (calcium) to agonist” value [1] was “strong”.

`[Cl-].[K+]` [KCl] was tested, and the “luminescence response to depolarizing stimulus” value [2] was “optimal responses” and the “fluorescence signal (calcium entry) after depolarizing agent” value [3] was “sensible increase of the signal”.

In the case of `N[C@@H](CCC(=O)O)C(=O)O` [Glutamate], the “fluorescence signal after stimulation, undifferentiated vs differentiated cells” value [4] is reported as “much higher in the differentiated cells than in the undifferentiated ones”.

In the case of Endothelin-1, the “luminescence response (calcium) to agonist” value [5] is reported as “strong”.

Source: patent publication US20090286695A1, “LUMINESCENT STEM CELLS AND USES THEREOF” (AXXAM S.P.A., priority 2006, published 2009)
